Read-outs that look alike come from different tables or passages of the source.
Assays:
Type in all cases: cell-based
[1] = system: Pseudomonas aeruginosa ATCC 27853; conditions: for MIC P. aeruginosa ATCC 27853: Table S3
Method: (§1) The minimal inhibitory concentration (MIC) of peptides 1a, 1b, 2a, and 2b were determined by broth microdilution according to the Clinical Laboratory Standard Institute (CLSI) method […]-A9. The MICs of the peptides 1c, 1d, 2c, and 2d were determined by broth dilution according to the European Committee for Antimicrobial Susceptibility Testing (EUCAST). Final concentrations of 0.5-256 μg/mL were tested against a panel of reference bacteria-S. aureus (ATCC 9144), S. epidermidis (1457), E. coli (ATCC 25922), and P. aeruginosa (ATCC 27853). Each strain was tested in biological triplicate. The MIC values were defined as the lowest concentration of the peptides resulting in no visual growth.

[2] = system: Staphylococcus epidermidis 1457; conditions: for MIC S. epidermidis 1457: Table S3
Method: as §1

[3] = system: Escherichia coli ATCC 25922; conditions: for MIC E. coli ATCC 25922: Table S3
Method: as §1

[4] = system: Staphylococcus aureus ATCC 9144; conditions: for MIC S. aureus ATCC 9144: Table S3
Method: as §1

[5] = technical replicate 1, biological replicate BR1
[6] = technical replicate 1, biological replicate BR2
[7] = technical replicate 1, biological replicate BR3
[8] = technical replicate 2, biological replicate BR1
[9] = technical replicate 2, biological replicate BR2
[10] = technical replicate 2, biological replicate BR3
[11] = technical replicate 3, biological replicate BR1
[12] = technical replicate 3, biological replicate BR2
[13] = technical replicate 3, biological replicate BR3

## N3-PEG400-RBBRF [2b, azidopeptide N3-PEG400-RBBRF, B = biphenylalanine, amidated C-terminus]
[1]; ATCC 27853, broth microdilution CLSI M07-A9 (1a,1b,2a,2b) or broth dilution EUCAST (1c,1d,2c,2d), 0.5-256 µg/mL tested, biological triplicate, no visual growth
  Antimicrobial Activity (MIC) P. aeruginosa: 256 µg/mL
[1]; [5]
  MIC P. aeruginosa ATCC 27853: 128 µg/mL
[1]; [6]
  MIC P. aeruginosa ATCC 27853: 256 µg/mL
[1]; [7]
  MIC P. aeruginosa ATCC 27853: 256 µg/mL
[1]; [8]
  MIC P. aeruginosa ATCC 27853: 128 µg/mL
[1]; [9]
  MIC P. aeruginosa ATCC 27853: 256 µg/mL
[1]; [10]
  MIC P. aeruginosa ATCC 27853: 256 µg/mL
[1]; [11]
  MIC P. aeruginosa ATCC 27853: 128 µg/mL
[1]; [12]
  MIC P. aeruginosa ATCC 27853: 256 µg/mL
[1]; [13]
  MIC P. aeruginosa ATCC 27853: 256 µg/mL
[2]; [5]
  MIC S. epidermidis 1457: 16 µg/mL
[2]; [6]
  MIC S. epidermidis 1457: 16 µg/mL
[2]; [7]
  MIC S. epidermidis 1457: 16 µg/mL
[2]; [8]
  MIC S. epidermidis 1457: 16 µg/mL
[2]; [9]
  MIC S. epidermidis 1457: 16 µg/mL
[2]; [10]
  MIC S. epidermidis 1457: 16 µg/mL
[2]; [11]
  MIC S. epidermidis 1457: 16 µg/mL
[2]; [12]
  MIC S. epidermidis 1457: 16 µg/mL
[2]; [13]
  MIC S. epidermidis 1457: 16 µg/mL
[2]; strain 1457, broth microdilution CLSI M07-A9 (1a,1b,2a,2b) or broth dilution EUCAST (1c,1d,2c,2d), 0.5-256 µg/mL tested, biological triplicate, no visual growth
  Antimicrobial Activity (MIC) S. epidermidis: 16 µg/mL
[3]; ATCC 25922, broth microdilution CLSI M07-A9 (1a,1b,2a,2b) or broth dilution EUCAST (1c,1d,2c,2d), 0.5-256 µg/mL tested, biological triplicate, no visual growth
  Antimicrobial Activity (MIC) E. coli: 128 µg/mL
[3]; [5]
  MIC E. coli ATCC 25922: 128 µg/mL
[3]; [6]
  MIC E. coli ATCC 25922: 128 µg/mL
[3]; [7]
  MIC E. coli ATCC 25922: 128 µg/mL
[3]; [8]
  MIC E. coli ATCC 25922: 128 µg/mL
[3]; [9]
  MIC E. coli ATCC 25922: 128 µg/mL
[3]; [10]
  MIC E. coli ATCC 25922: 128 µg/mL
[3]; [11]
  MIC E. coli ATCC 25922: 128 µg/mL
[3]; [12]
  MIC E. coli ATCC 25922: 128 µg/mL
[3]; [13]
  MIC E. coli ATCC 25922: 128 µg/mL
[4]; ATCC 9144, broth microdilution CLSI M07-A9 (1a,1b,2a,2b) or broth dilution EUCAST (1c,1d,2c,2d), 0.5-256 µg/mL tested, biological triplicate, lowest concentration with no visual growth
  Antimicrobial Activity (MIC) S. aureus: 32 µg/mL
[4]; [5]
  MIC S. aureus ATCC 9144: 16 µg/mL
[4]; [6]
  MIC S. aureus ATCC 9144: 32 µg/mL
[4]; [7]
  MIC S. aureus ATCC 9144: 16 µg/mL
[4]; [8]
  MIC S. aureus ATCC 9144: 16 µg/mL
[4]; [9]
  MIC S. aureus ATCC 9144: 32 µg/mL
[4]; [10]
  MIC S. aureus ATCC 9144: 32 µg/mL
[4]; [11]
  MIC S. aureus ATCC 9144: 16 µg/mL
[4]; [12]
  MIC S. aureus ATCC 9144: 32 µg/mL
[4]; [13]
  MIC S. aureus ATCC 9144: 32 µg/mL

From PMC8698454, “Anti-Colonization Effect of Au Surfaces with Self-Assembled Molecular Monolayers Functionalized with Antimicrobial Peptides on S. epidermidis” (Antibiotics, 2021)
